Tests used:
Format in all cases: functional
[1] = tested on: OVCAR-5; experiment: Growth inhibition of human OVCAR5 cells
[2] = tested on: HCC 2998; experiment: Growth inhibition of human HCC2998 cells
[3] = tested on: M14; experiment: Growth inhibition of human M14 cells
[4] = tested on: UACC-62; experiment: Growth inhibition of human UACC62 cells
[5] = tested on: SK-MEL-2; experiment: Growth inhibition of human SK-MEL-2 cells
[6] = tested on: NCI-H23; experiment: Growth inhibition of human NCI-H23 cells
[7] = tested on: OVCAR-4; experiment: Growth inhibition of human OVCAR4 cells
[8] = tested on: PC-3; experiment: Growth inhibition of human PC3 cells
[9] = tested on: HCT-116; experiment: Growth inhibition of human HCT116 cells
[10] = tested on: DU-145; experiment: Growth inhibition of human DU145 cells
[11] = tested on: TK-10; experiment: Growth inhibition of human TK10 cells
[12] = tested on: NCI-H522; experiment: Growth inhibition of human NCI-H522 cells
[13] = tested on: SK-OV-3; experiment: Growth inhibition of human SKOV3 cells
[14] = tested on: MCF7; experiment: Growth inhibition of human MCF7 cells
[15] = tested on: SK-MEL-28; experiment: Growth inhibition of human SK-MEL-28 cells
[16] = tested on: SF-268; experiment: Growth inhibition of human SF268 cells
[17] = tested on: CAKI-1; experiment: Growth inhibition of human Caki1 cells
[18] = tested on: EKVX; experiment: Growth inhibition of human EKVX cells
[19] = tested on: NCI-H460; experiment: Growth inhibition of human NCI-H460 cells
[20] = tested on: Malme-3M; experiment: Growth inhibition of human MALME-3M cells
[21] = tested on: NCI-H226; experiment: Growth inhibition of human NCI-H226 cells
[22] = tested on: OVCAR-3; experiment: Growth inhibition of human OVCAR-3 cells
[23] = tested on: HT-29; experiment: Growth inhibition of human HT-29 cells
[24] = tested on: LOX IMVI; experiment: Growth inhibition of human LOXIMVI cells
[25] = tested on: SR; experiment: Growth inhibition of human SR cells
[26] = tested on: SK-MEL-5; experiment: Growth inhibition of human SK-MEL-5 cells
[27] = tested on: UACC-257; experiment: Growth inhibition of human UACC257 cells
[28] = tested on: BT-549; experiment: Growth inhibition of human BT549 cells
[29] = tested on: T47D; experiment: Growth inhibition of human T47D cells
[30] = tested on: OVCAR-8; experiment: Growth inhibition of human OVCAR8 cells
[31] = tested on: HOP-92; experiment: Growth inhibition of human HOP92 cells
[32] = tested on: IGROV-1; experiment: Growth inhibition of human IGROV1 cells
[33] = tested on: SF-539; experiment: Growth inhibition of human SF539 cells
[34] = tested on: SN12C; experiment: Growth inhibition of human SN12C cells
[35] = tested on: MDA-MB-231; experiment: Growth inhibition of human MDA-MB-231 cells
[36] = tested on: MDA-MB-435; experiment: Growth inhibition of human MDA-MB-435 cells
[37] = tested on: COLO 205; experiment: Growth inhibition of human COLO205 cells
[38] = tested on: A498; experiment: Growth inhibition of human A498 cells
[39] = tested on: HL-60(TB); experiment: Growth inhibition of human HL-60(TB) cells
[40] = tested on: RPMI-8226; experiment: Growth inhibition of human RPMI8226 cells
[41] = Growth inhibition of human Hs 578T cells
[42] = tested on: UO-31; experiment: Growth inhibition of human UO31 cells
[43] = tested on: NCI-H322M; experiment: Growth inhibition of human NCI-H322M cells
[44] = read-out: pLC50 (the source's name) (converted)

## CC(C)=CCC/C(C)=C/Cc1cc(/C=C/c2cc(O)cc(O)c2)ccc1O [SCHWEINFURTHIN I]
[1]
  GI50: 17.4 µM
  LC50: 72.4 µM
[1]; read-out: pTGI (converted)
  TGI: 35.5 µM
[2]
  GI50: 15.5 µM
  LC50: 58.9 µM
[2]; read-out: pTGI (converted)
  TGI: 30.2 µM
[3]
  GI50: 12.9 µM
[3]; [44]
  CC50: 53.7 µM
[3]; read-out: pTGI (converted)
  TGI: 26.3 µM
[4]
  GI50: 10.7 µM
[4]; [44]
  CC50: 51.3 µM
[4]; read-out: pTGI (converted)
  TGI: 23.4 µM
[5]
  GI50: 11.5 µM
  LC50: 56.2 µM
[5]; read-out: pTGI (converted)
  TGI: 25.7 µM
[6]
  GI50: 11.7 µM
  LC50: 61.7 µM
[6]; read-out: pTGI (converted)
  TGI: 26.9 µM
[7]
  GI50: 10 µM
[7]; [44]
  CC50: 50.1 µM
[7]; read-out: pTGI (converted)
  TGI: 22.4 µM
[8]
  GI50: 6.61 µM
  LC50: 49 µM
[8]; read-out: pTGI (converted)
  TGI: 20.4 µM
[9]
  GI50: 11 µM
[9]; [44]
  CC50: 50.1 µM
[9]; read-out: pTGI (converted)
  TGI: 23.4 µM
[10]
  GI50: 12.9 µM
  LC50: 51.3 µM
[10]; read-out: pTGI (converted)
  TGI: 25.7 µM
[11]
  GI50: 14.8 µM
  LC50: 56.2 µM
[11]; read-out: pTGI (converted)
  TGI: 28.8 µM
[12]
  GI50: 11.2 µM
  LC50: 72.4 µM
[12]; read-out: pTGI (converted)
  TGI: 28.2 µM
[13]
  GI50: 15.5 µM
[13]; [44]
  CC50: 55 µM
[13]; read-out: pTGI (converted)
  TGI: 29.5 µM
[14]
  GI50: 10 µM
  LC50: 63.1 µM
[14]; read-out: pTGI (converted)
  TGI: 25.1 µM
[15]
  GI50: 10.7 µM
[15]; [44]
  CC50: 50.1 µM
[15]; read-out: pTGI (converted)
  TGI: 23.4 µM
[16]
  GI50: 8.71 µM
  LC50: 51.3 µM
[16]; read-out: pTGI (converted)
  TGI: 21.9 µM
[17]
  GI50: 5.62 µM
[17]; [44]
  CC50: 43.7 µM
[17]; read-out: pTGI (converted)
  TGI: 18.6 µM
[18]
  GI50: 10.5 µM
  LC50: 50.1 µM
[18]; read-out: pTGI (converted)
  TGI: 22.9 µM
[19]
  GI50: 10.2 µM
  LC50: 85.1 µM
[19]; read-out: pTGI (converted)
  TGI: 29.5 µM
[20]
  GI50: 11.7 µM
  LC50: 63.1 µM
[20]; read-out: pTGI (converted)
  TGI: 26.9 µM
[21]
  GI50: 16.6 µM
  LC50: 74.1 µM
[21]; read-out: pTGI (converted)
  TGI: 35.5 µM
[22]
  GI50: 12.3 µM
  LC50 (concentration killing 50% of cells): 50.1 µM
[22]; read-out: pTGI (converted)
  TGI: 25.1 µM
[23]
  GI50: 12.6 µM
  LC50: 69.2 µM
[23]; read-out: pTGI (converted)
  TGI: 29.5 µM
[24]
  GI50: 7.24 µM
[24]; [44]
  CC50: 50.1 µM
[24]; read-out: pTGI (converted)
  TGI: 20.9 µM
[25]
  GI50: 11.2 µM
  LC50: > 100 µM
[25]; read-out: pTGI (converted)
  TGI: 43.7 µM
[26]
  GI50: 4.68 µM
[26]; [44]
  CC50: 43.7 µM
[26]; read-out: pTGI (converted)
  TGI: 17.4 µM
[27]
  GI50: 14.5 µM
  LC50: 60.3 µM
[27]; read-out: pTGI (converted)
  TGI: 29.5 µM
[28]
  GI50: 7.41 µM
  LC50: 45.7 µM
[28]; read-out: pTGI (converted)
  TGI: 20 µM
[29]
  GI50: 10.2 µM
  LC50: 81.3 µM
[29]; read-out: pTGI (converted)
  TGI: 28.8 µM
[30]
  GI50: 13.8 µM
  LC50: 70.8 µM
[30]; read-out: pTGI (converted)
  TGI: 30.9 µM
[31]
  GI50: 12.9 µM
[31]; [44]
  CC50: 77.6 µM
[31]; read-out: pTGI (converted)
  TGI: 31.6 µM
[32]
  GI50: 11.7 µM
[32]; [44]
  CC50: 55 µM
[32]; read-out: pTGI (converted)
  TGI: 25.1 µM
[33]
  GI50: 5.13 µM
  LC50: 47.9 µM
[33]; read-out: pTGI (converted)
  TGI: 17.8 µM
[34]
  GI50: 13.5 µM
[34]; [44]
  CC50: 61.7 µM
[34]; read-out: pTGI (converted)
  TGI: 28.8 µM
[35]
  GI50: 10.7 µM
  LC50: 63.1 µM
[35]; read-out: pTGI (converted)
  TGI: 26.3 µM
[36]
  GI50: 7.24 µM
[36]; [44]
  CC50: 53.7 µM
[36]; read-out: pTGI (converted)
  TGI: 21.9 µM
[37]
  GI50: 18.2 µM
  LC50: 64.6 µM
[37]; read-out: pTGI (converted)
  TGI: 34.7 µM
[38]
  GI50: 5.01 µM
  LC50: 47.9 µM
[38]; read-out: pTGI (converted)
  TGI: 20.4 µM
[39]
  GI50: 5.37 µM
[39]; [44]
  CC50: 77.6 µM
[39]; read-out: pTGI (converted)
  TGI: 23.4 µM
[40]
  GI50: 3.98 µM
  LC50: 91.2 µM
[40]; read-out: pTGI (converted)
  TGI: 19.1 µM
[41]
  GI50: 4.07 µM
  LC50: > 100 µM
[41]; read-out: pTGI (converted)
  TGI: 26.3 µM
[42]
  GI50: 6.76 µM
  LC50 (concentration killing 50% of cells): 47.9 µM
[42]; read-out: pTGI (converted)
  TGI: 20.9 µM
[43]
  GI50: 11.5 µM
  LC50: 51.3 µM
[43]; read-out: pTGI (converted)
  TGI: 24.5 µM

From ChEMBL document CHEMBL1154825, “Schweinfurthins I and J from Macaranga schweinfurthii” (2010)
